Measurements: ChEMBL document CHEMBL4613321, “Discovery of Small-Molecule Stabilizers of 14-3-3 Protein-Protein Interactions via Dynamic Combinatorial Chemistry” (ACS Med Chem Lett, 2020)
Active and inactive are the calls of the source. The rule behind the calls is not given here.

Columns and labels:
[1] = target: T1, 14-3-3 protein zeta/delta (Homo sapiens, UniProt P63104); experiment: Binding affinity to 14-3-3 zeta (unknown origin) by SPR analysis
T1 sequence (P63104 whole entry): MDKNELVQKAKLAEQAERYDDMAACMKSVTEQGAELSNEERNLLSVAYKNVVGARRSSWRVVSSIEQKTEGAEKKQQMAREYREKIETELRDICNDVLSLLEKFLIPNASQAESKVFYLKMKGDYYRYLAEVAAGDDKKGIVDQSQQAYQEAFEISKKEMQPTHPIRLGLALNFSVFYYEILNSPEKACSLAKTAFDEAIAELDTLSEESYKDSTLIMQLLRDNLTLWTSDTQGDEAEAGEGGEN

[2] = target: T2, 14-3-3 protein zeta/delta (Homo sapiens) (UniProt P63104); experiment: Binding affinity to 14-3-3 zeta (unknown origin) assessed as response unit at 3.1 to 50 uM by SPR analysis
T2 sequence (whole entry): T1 sequence (P63104 whole entry)

[3] = target: T2, 14-3-3 protein zeta/delta (Homo sapiens); experiment: Binding affinity to 14-3-3 zeta (unknown origin) assessed as association rate constant by SPR analysis
[4] = target: T2, 14-3-3 protein zeta/delta (Homo sapiens); experiment: Binding affinity to 14-3-3 zeta (unknown origin) assessed as dissociation rate constant by SPR analysis
[5] = target: T2, 14-3-3 protein zeta/delta (Homo sapiens); experiment: Binding affinity to 14-3-3 zeta (unknown origin) assessed as half life for dissociation by SPR analysis
[6] = target: T2, 14-3-3 protein zeta/delta (Homo sapiens); experiment: Competitive binding affinity to 14-3-3 zeta (unknown origin) at 25 uM in presence of 1 uM synaptopodin by SPR analysis
[7] = target: T1, 14-3-3 protein zeta/delta; experiment: Binding affinity to 14-3-3 zeta (unknown origin) assessed as 14-3-3 zeta-synaptopodin interaction by fluorescence polarization assay
[8] = target: T2, 14-3-3 protein zeta/delta (Homo sapiens); experiment: Competitive binding affinity to 14-3-3 zeta (unknown origin) at 1000 uM in presence of 1 uM synaptopodin by SPR analysis
[9] = target: T2, 14-3-3 protein zeta/delta (Homo sapiens); experiment: Competitive binding affinity to 14-3-3 zeta (unknown origin) at 1000 uM in presence of 25 uM synaptopodin by SPR analysis
[10] = target: T2, 14-3-3 protein zeta/delta (Homo sapiens); experiment: Competitive binding affinity to 14-3-3 zeta (unknown origin) at 200 uM in presence of 1 uM synaptopodin by SPR analysis

| Structure (SMILES) | Kd [1] [µM] | RUmax [2] | Ka [3] | Kdiss [4] | T1/2 [5] [s] | Activity [6] | EC50 [7] [µM] | Activity [8] | Activity [9] | Activity [10] |
| --- | --- | --- | --- | --- | --- | --- | --- | --- | --- | --- |
| O=C(N/N=C/c1cccc(Br)c1)c1cc2c(s1)CCCC2 | 16 | 4.6 | 2.6 ×10³ /M/s | 4.1 ×10⁻² /s | 17 | Active | – | – | – | – |
| O=C(N/N=C/c1cccc(Cl)c1Cl)c1ccccc1P(=O)(O)O | 1010 | – | – | – | – | – | 120 | Active | Active | Active |
| O=C(N/N=C/c1cccc(Cl)c1Cl)c1cc2c(s1)CCCC2 | 15 | 4.5 | 5.8 ×10² /M/s | 8.7 ×10⁻³ /s | 80 | Active | – | – | – | – |
